Experimental data as given in patent publication US11613556B2, “Oxysterols and methods of use thereof” (Sage Therapeutics, Inc., priority 2016, dated 2023).
Read-outs that look alike come from different tables or passages of the source.

What was measured:
[1] = target: GluN1/GluN2A glutamate receptors (human GRIN1/GRIN2A) expressed in HEK293 cells (Homo sapiens (Human), UniProt Q05586+Q12879); experiment: Whole-cell patch clamp of mammalian cells (Ionworks Barracuda), positive allosteric modulation, GluN1/GluN2A; assay type: cell-based; details: for Emax: read-out: GluN2A PCA EMax (%)
Sequence of GluN1/GluN2A glutamate receptors (human GRIN1/GRIN2A) expressed in HEK293 cells (Q12879 whole entry, looked up, other chains not shown): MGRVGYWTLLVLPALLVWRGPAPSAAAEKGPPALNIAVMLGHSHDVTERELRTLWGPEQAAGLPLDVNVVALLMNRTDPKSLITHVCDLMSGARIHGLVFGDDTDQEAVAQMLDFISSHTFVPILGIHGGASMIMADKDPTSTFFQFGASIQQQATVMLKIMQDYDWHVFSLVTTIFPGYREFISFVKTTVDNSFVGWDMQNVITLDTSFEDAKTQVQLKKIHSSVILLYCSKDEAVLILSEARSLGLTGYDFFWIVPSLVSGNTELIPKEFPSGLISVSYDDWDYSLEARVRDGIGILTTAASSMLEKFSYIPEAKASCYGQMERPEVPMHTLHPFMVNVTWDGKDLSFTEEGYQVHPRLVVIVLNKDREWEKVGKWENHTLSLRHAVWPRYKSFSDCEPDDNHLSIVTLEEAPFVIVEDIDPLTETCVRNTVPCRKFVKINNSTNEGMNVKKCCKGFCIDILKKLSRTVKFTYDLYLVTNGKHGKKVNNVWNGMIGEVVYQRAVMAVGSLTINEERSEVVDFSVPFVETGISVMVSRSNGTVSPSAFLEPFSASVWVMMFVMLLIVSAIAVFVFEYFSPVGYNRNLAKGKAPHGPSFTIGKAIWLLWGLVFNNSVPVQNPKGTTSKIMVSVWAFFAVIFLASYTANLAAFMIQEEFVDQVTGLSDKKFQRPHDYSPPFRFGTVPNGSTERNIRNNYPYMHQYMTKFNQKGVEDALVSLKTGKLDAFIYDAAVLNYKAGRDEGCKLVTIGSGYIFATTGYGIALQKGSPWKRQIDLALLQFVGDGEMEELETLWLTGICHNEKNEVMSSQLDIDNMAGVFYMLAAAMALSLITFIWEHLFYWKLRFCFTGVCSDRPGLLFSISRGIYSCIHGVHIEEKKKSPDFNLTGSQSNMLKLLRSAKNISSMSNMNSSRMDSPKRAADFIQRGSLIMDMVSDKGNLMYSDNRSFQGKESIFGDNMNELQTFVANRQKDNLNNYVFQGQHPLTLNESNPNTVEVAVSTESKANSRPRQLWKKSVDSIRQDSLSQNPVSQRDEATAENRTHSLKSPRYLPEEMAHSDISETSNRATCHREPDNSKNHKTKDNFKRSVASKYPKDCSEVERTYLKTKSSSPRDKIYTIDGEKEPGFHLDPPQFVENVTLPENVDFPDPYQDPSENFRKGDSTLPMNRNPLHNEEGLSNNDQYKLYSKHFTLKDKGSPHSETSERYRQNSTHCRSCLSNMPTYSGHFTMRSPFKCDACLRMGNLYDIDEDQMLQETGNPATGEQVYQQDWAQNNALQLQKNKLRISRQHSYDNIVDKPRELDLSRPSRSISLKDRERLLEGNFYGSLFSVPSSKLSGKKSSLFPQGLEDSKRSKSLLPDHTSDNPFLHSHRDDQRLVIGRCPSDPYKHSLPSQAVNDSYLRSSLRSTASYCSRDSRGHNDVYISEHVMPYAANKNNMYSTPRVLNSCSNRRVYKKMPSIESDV
Method: (§1) NMDA potentiation in mammalian cells which expressed NMDA receptors was assessed using the automatic patch-clamp system can be used determine the NAM activity of compounds as described below. An whole cell patch-clamp system can be used determine the PAM activity of compounds as described below.
(§2) The measurements were performed using Ion Works Barracuda platform following this procedure:
(§3) Electrophysiological Procedures: • a) Intracellular solution (mM): 50 mM CsCl, 90 mM CsF, 2 mM MgCl2, 5 mM EGTA, 10 mM HEPES. Adjust to pH 7.2 with CsOH. • b) Extracellular solution, HB-PS (composition in mM): NaCl, 137; KCl, 1.0; CaCl2, 5; HEPES, 10; Glucose, 10; pH adjusted to 7.4 with NaOH (refrigerated until use). • c) Holding potential: −70 mV, potential during agonist/PAM application: −40 mV.
(§4) Recording Procedure: • a) Extracellular buffer will be loaded into the PPC plate wells (11 μL per well). Cell suspension will be pipetted into the wells (9 μL per well) of the PPC planar electrode. • b) Whole-cell recording configuration will be established via patch perforation with membrane currents recorded by on-board patch clamp amplifiers. • c) Two recordings (scans) will be performed. First, during pre-application of test article alone (duration of pre-application—5 min) and second, during test articles and agonist (EC20 L-glutamate and 30 μM glycine) co-application to detect positive modulatory effects of the test article.
(§5) Test Article Administration: The first pre-application will consist of the addition of 20 μL of 2× concentrated test article solution and, second, of 20 μL of 1× concentrated test article and agonist at 10 μL/s (2 second total application time).
(§6) Potentiating Effect of Positive Allosteric Modulators (PAM) on the Channel
(§7) The maximal amplitude of the evoked currents are measured and defined as Peak Current Amplitude (PCA).

[2] = target: GluN2B glutamate receptors expressed in mammalian cells (Homo sapiens (Human), UniProt Q05586+Q13224); experiment: Whole-cell patch clamp of mammalian cells (Ionworks Barracuda), positive allosteric modulation, GluN2B; assay type: cell-based; details: for Emax: read-out: GluN2B PCA EMax (%)
Sequence of GluN2B glutamate receptors expressed in mammalian cells (Q13224 27-1484, other chains not shown): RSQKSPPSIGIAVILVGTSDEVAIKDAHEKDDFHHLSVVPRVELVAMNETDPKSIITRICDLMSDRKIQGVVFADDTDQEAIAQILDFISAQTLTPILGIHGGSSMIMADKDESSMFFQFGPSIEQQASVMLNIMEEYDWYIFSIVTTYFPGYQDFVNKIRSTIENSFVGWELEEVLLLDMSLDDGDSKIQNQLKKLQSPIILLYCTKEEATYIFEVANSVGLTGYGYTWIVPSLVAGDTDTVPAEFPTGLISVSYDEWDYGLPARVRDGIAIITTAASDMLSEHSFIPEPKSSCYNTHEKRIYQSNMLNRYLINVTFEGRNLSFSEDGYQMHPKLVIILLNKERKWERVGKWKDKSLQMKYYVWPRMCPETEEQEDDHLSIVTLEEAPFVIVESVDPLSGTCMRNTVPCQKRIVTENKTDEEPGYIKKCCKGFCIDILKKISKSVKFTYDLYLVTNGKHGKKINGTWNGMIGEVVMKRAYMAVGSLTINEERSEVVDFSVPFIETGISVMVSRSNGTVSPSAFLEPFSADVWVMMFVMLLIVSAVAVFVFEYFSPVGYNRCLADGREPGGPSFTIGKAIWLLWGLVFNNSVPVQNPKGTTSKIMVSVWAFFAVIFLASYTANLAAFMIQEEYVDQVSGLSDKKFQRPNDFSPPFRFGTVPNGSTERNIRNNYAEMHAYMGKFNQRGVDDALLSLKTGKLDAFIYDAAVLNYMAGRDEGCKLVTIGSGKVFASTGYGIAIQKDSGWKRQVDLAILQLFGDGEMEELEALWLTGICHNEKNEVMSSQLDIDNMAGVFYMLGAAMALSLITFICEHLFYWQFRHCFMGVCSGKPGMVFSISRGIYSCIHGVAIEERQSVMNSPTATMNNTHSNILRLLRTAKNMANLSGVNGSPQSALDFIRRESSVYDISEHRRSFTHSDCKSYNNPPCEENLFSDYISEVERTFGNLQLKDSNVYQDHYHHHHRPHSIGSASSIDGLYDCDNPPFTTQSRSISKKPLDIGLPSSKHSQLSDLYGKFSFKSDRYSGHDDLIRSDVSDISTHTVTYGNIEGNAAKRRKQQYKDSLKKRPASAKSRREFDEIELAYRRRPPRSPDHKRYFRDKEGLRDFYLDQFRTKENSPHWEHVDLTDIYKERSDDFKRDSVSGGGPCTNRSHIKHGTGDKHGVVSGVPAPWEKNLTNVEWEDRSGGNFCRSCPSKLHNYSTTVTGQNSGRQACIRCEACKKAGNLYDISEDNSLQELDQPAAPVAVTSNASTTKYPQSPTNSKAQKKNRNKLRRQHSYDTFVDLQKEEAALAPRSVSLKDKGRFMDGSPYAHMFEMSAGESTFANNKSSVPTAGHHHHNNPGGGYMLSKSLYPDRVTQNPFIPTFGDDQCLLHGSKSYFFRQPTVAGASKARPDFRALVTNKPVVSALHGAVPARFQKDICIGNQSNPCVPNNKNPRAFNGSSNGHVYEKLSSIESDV
Method: as §1, §2, §3, §4, §5, §6, §7

[3] = peak current amplitude, co-application with EC20 L-glutamate and 30 μM glycine, HEK293
[4] = peak current amplitude, co-application with EC20 L-glutamate and 30 μM glycine, read-out: GluN2B PCA EC50
[5] = peak current amplitude, co-application with EC20 L-glutamate and 30 μM glycine

SMILES	EC50 ([1]; peak current amplitude, co-application with EC20 L-glutamate and 30 μM glycine, HEK293, read-out: GluN2A PCA EC50) [nM]	Emax [1, 3] [%]	EC50 [2] [nM]	Emax [2] [%]	EC50 [1] [nM]	EC50 [2, 4] [nM]	Emax [2, 5] [%]
C[C@H]([C@H](O)C[C@@H](O)c1ccccc1)[C@H]1CC[C@H]2[C@@H]3CC[C@H]4C[C@](O)(C(F)(F)F)CC[C@]4(C)[C@H]3CC[C@]12C [Compound 31, (1R,3R,4S)-4-((3S,5S,8R,9S,10S,13S,14S,17R)-3-hydroxy-10,13-dimethyl-3-(trifluoromethyl)hexadecahydro-1H-cyclopenta[a]phenanthren-17-yl)-1-phenylpentane-1,3-diol]	1 to 100	100 to 500	100 to 1000	100 to 500			
CC(C)CC[C@@H](O)[C@@H](C)[C@H]1CC[C@H]2[C@@H]3CC[C@@H]4C[C@@](C)(O)CC[C@]4(C)[C@H]3CC[C@]12C [Compound 36, (3S,5R,8R,9S,10S,13S,14S,17R)-17-((2S,3R)-3-hydroxy-6-methylheptan-2-yl)-3,10,13-trimethylhexadecahydro-1H-cyclopenta[a]phenanthren-3-ol]		< 100			> 1000	> 1000	< 100
CC[C@]1(O)CC[C@H]2C(=CC[C@@H]3[C@@H]2CC[C@]2(C)[C@@H]([C@H](C)[C@@H](O)CCC(C)C)CC[C@@H]32)C1 [Compound 44, (3S,8R,9S,10R,13S,14S,17R)-3-ethyl-17-((2S,3S)-3-hydroxy-6-methylheptan-2-yl)-13-methyl-2,3,4,7,8,9,10,11,12,13,14,15,16,17-tetradecahydro-1H-cyclopenta[a]phenanthren-3-ol]		< 100			> 1000	> 1000	< 100
CC(C)CC[C@@H](O)[C@@H](C)[C@H]1CC[C@H]2[C@@H]3CC[C@H]4C[C@@](C)(O)CC[C@]4(C)[C@H]3CC[C@]12C [Compound 47, (3S,5S,8R,9S,10S,13S,14S,17R)-17-((2S,3R)-3-hydroxy-6-methylheptan-2-yl)-3,10,13-trimethylhexadecahydro-1H-cyclopenta[a]phenanthren-3-ol]		< 100			> 1000	> 1000	< 100
CC[C@]1(O)CC[C@@]2(C)C(=CC[C@H]3[C@@H]4CC[C@H]([C@H](C)[C@@H](O)CC5CCC(C)(C)CC5)[C@@]4(C)CC[C@@H]32)C1 [Compound 49, (3S,8S,9S,10R,13S,14S,17R)-17-((2S,3S)-4-(4,4-dimethylcyclohexyl)-3-hydroxybutan-2-yl)-3-ethyl-10,13-dimethyl-2,3,4,7,8,9,10,11,12,13,14,15,16,17-tetradecahydro-1H-cyclopenta[a]phenanthren-3-ol]		< 100			> 1000	> 1000	< 100
CC[C@]1(O)CC[C@@]2(C)C(=CC[C@H]3[C@@H]4CC[C@H]([C@H](C)[C@H](O)CCC(C)C)[C@@]4(C)CC[C@@H]32)C1 [Compound 52, (3S,8S,9S,10R,13S,14S,17R)-3-ethyl-17-((2S,3R)-3-hydroxy-6-methylheptan-2-yl)-10,13-dimethyl-2,3,4,7,8,9,10,11,12,13,14,15,16,17-tetradecahydro-1H-cyclopenta[a]phenanthren-3-ol]		< 100			> 1000	> 1000	< 100
CC(C)CC[C@H](O)[C@@H](C)[C@H]1CC[C@H]2[C@@H]3CC=C4C[C@@](C)(O)CC[C@]4(C)[C@H]3CC[C@]12C [Compound 75, (3S,8S,9S,10R,13S,14S,17R)-17-((2S,3S)-3-hydroxy-6-methylheptan-2-yl)-3,10,13-trimethyl-2,3,4,7,8,9,10,11,12,13,14,15,16,17-tetradecahydro-1H-cyclopenta[a]phenanthren-3-ol]		< 100			> 1000	> 1000	< 100
